“And” between values parts separate entries of the source, which are not always exact repeats. Identical values can stand only once. Toxic doses and inconclusive results are not listed.
Test system: P388 leukemia ip, CD2F1 mice, survival T/C
Experiment: NCI In Vivo Anticancer Drug Screen. Data for tumor model P388 Leukemia (intraperitoneal) in CD2F1 (CDF1) mice
Conditions: endpoint: median survival time, higher = longer survival
Outline: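 Mice carrying the transplanted tumor received test compound or vehicle. Survival was recorded in each group, and the value is the treated-group measurement divided by that of the vehicle-treated control group.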

[1] = dose: 25.0 mg/kg/injection, schedule: Q01DX001 (ip), vehicle: saline with Tween-80
[2] = dose: 50.0 mg/kg/injection, schedule: Q01DX001 (ip), vehicle: saline with Tween-80
[3] = dose: 100.0 mg/kg/injection, schedule: Q01DX001 (ip), vehicle: saline with Tween-80
[4] = dose: 50.0 mg/kg/injection, schedule: Q04DX003 (ip), vehicle: saline with Tween-80
[5] = dose: 100.0 mg/kg/injection, schedule: Q04DX003 (ip), vehicle: saline with Tween-80
[6] = dose: 200.0 mg/kg/injection, schedule: Q04DX003 (ip), vehicle: saline with Tween-80
[7] = dose: 50.0 mg/kg/injection, schedule: Q01DX009 (ip), vehicle: saline with Tween-80
[8] = dose: 100.0 mg/kg/injection, schedule: Q01DX009 (ip), vehicle: saline with Tween-80
[9] = dose: 200.0 mg/kg/injection, schedule: Q01DX009 (ip), vehicle: saline with Tween-80
[10] = dose: 60.0 mg/kg/injection, schedule: Q01DX005 (ip), vehicle: Klucel (hydroxypropylcellulose) (HPC)
[11] = dose: 120.0 mg/kg/injection, schedule: Q01DX005 (ip), vehicle: Klucel (hydroxypropylcellulose) (HPC)
[12] = dose: 50.0 mg/kg/injection, schedule: Q01DX005 (ip), vehicle: Klucel (hydroxypropylcellulose) (HPC)
[13] = dose: 100.0 mg/kg/injection, schedule: Q01DX005 (ip), vehicle: Klucel (hydroxypropylcellulose) (HPC)
[14] = dose: 200.0 mg/kg/injection, schedule: Q01DX005 (ip), vehicle: Klucel (hydroxypropylcellulose) (HPC)
[15] = dose: 12.5 mg/kg/injection, schedule: Q01DX009 (ip), vehicle: saline
[16] = dose: 25.0 mg/kg/injection, schedule: Q01DX009 (ip), vehicle: saline
[17] = dose: 50.0 mg/kg/injection, schedule: Q01DX009 (ip), vehicle: saline
[18] = dose: 50.0 mg/kg/injection, schedule: Q01DX005 (ip), vehicle: saline with Tween-80
[19] = dose: 100.0 mg/kg/injection, schedule: Q01DX005 (ip), vehicle: saline with Tween-80
[20] = dose: 200.0 mg/kg/injection, schedule: Q01DX005 (ip), vehicle: saline with Tween-80

O=C1Cn2c(cc(=O)c3ccccc32)O1
T/C [1]: 109 % of control | T/C [2]: 116 % of control | T/C [3]: 116 % of control

CN(C)C(=S)/N=C1/SCS(=O)(=O)N1c1ccccc1
T/C [4]: 98 % of control | T/C [5]: 104 % of control | T/C [6]: 95 % of control

CC(=O)Nc1ccc(C(=O)/C=N\NC(N)=S)cc1
T/C [7]: 94 % of control | T/C [8]: 86 % of control | T/C [9]: 94 % of control

C1COCCOCCOCCO1.[Br][Sn]([Br])([Br])[Br]
T/C [10]: 103 % of control | T/C [11]: 107 % of control

FC(F)(F)c1cccc(COCCN2CCN(Cc3cccc(C(F)(F)F)c3)CC2)c1
T/C (dose: 60.0 mg/kg/injection, schedule: Q01DX005 (ip), vehicle: saline with Tween-80): 103 % of control | T/C (dose: 120.0 mg/kg/injection, schedule: Q01DX005 (ip), vehicle: saline with Tween-80): 95 % of control | T/C (dose: 240.0 mg/kg/injection, schedule: Q01DX005 (ip), vehicle: saline with Tween-80): 112 % of control

COc1ccc2c(C)cc(N/N=C/c3ccc(OC)c4ccccc34)nc2c1
T/C [12]: 98 % of control | T/C [13]: 102 % of control | T/C [14]: 94 % of control

O=S(=O)(Nc1ccc(O)cc1)c1ccccc1
T/C (dose: 25.0 mg/kg/injection, schedule: Q04DX003 (ip), vehicle: saline with Tween-80): 110 % of control | T/C [4]: 100 % of control | T/C [8]: 108 % of control | T/C [5]: 107 % of control | T/C [9]: 100 % of control | T/C [6]: 100 % of control | T/C (dose: 400.0 mg/kg/injection, schedule: Q01DX009 (ip), vehicle: saline with Tween-80): 87 % of control | T/C (dose: 400.0 mg/kg/injection, schedule: Q04DX003 (ip), vehicle: saline with Tween-80): 100 % of control

CCOC(=O)C(=CN(C)c1ccccc1)C(=O)OCC
T/C [7]: 108 % of control | T/C [8]: 108 % of control | T/C [9]: 101 % of control

CN1CCC2(C)CC(Br)(Cc3ccccc32)C1Cl (centres undefined)
T/C [12]: 108 % of control | T/C [13]: 106 % of control

O=C(O)C(O)CBr (centres undefined)
T/C [15]: 100 % of control | T/C [16]: 95 % of control | T/C (dose: 25.0 mg/kg/injection, schedule: Q04DX003 (ip), vehicle: saline): 91 % of control | T/C [17]: 95 % of control | T/C (dose: 50.0 mg/kg/injection, schedule: Q04DX003 (ip), vehicle: saline): 87 % of control

[Se]=P(c1ccccc1)(N1CCOCC1)N1CCOCC1
T/C (dose: 13.75 mg/kg/injection, schedule: Q01DX001 (ip), vehicle: Klucel (hydroxypropylcellulose) (HPC)): 96 % of control | T/C (dose: 27.5 mg/kg/injection, schedule: Q01DX001 (ip), vehicle: Klucel (hydroxypropylcellulose) (HPC)): 112 % of control

CCn1c(C)cc(=NC(=O)c2ccccc2O)n1-c1ccccc1
T/C [3]: 103 % of control | T/C (dose: 200.0 mg/kg/injection, schedule: Q01DX001 (ip), vehicle: saline with Tween-80): 106 % of control | T/C (dose: 400.0 mg/kg/injection, schedule: Q01DX001 (ip), vehicle: saline with Tween-80): 102 % of control

CC1(CN2CCCC2)CCC(NC(=O)C(c2ccccc2)c2ccccc2)C(C)(C)O1 (centres undefined)
T/C [1]: 107 % of control | T/C [2]: 104 % of control

COC(=O)/C=C/CS(C)(=O)=O
T/C [18]: 105 % of control | T/C [19]: 101 % of control | T/C [20]: 99 % of control

Cc1ccc(C(CC(=O)O)C(N)C(=O)O)cc1 (centres undefined)
T/C [15]: 98 % of control | T/C [16]: 88 % of control | T/C [17]: 95 % of control and 96 % of control | T/C (dose: 100.0 mg/kg/injection, schedule: Q01DX009 (ip), vehicle: saline): 100 % of control | T/C (dose: 200.0 mg/kg/injection, schedule: Q01DX009 (ip), vehicle: saline): 95 % of control

O=C(N/N=C/c1ccccn1)c1ccccc1
T/C [10]: 102 % of control | T/C [11]: 97 % of control | T/C (dose: 240.0 mg/kg/injection, schedule: Q01DX005 (ip), vehicle: Klucel (hydroxypropylcellulose) (HPC)): 100 % of control

CC(=O)OCC1OC(N(CCCl)CCCl)C(OC(C)=O)C(OC(C)=O)C1OC(C)=O (centres undefined)
T/C (dose: 1.25 mg/kg/injection, schedule: Q01DX005 (ip), vehicle: distilled water + Tween-80): 106 % of control | T/C (dose: 2.5 mg/kg/injection, schedule: Q01DX005 (ip), vehicle: distilled water + Tween-80): 110 % of control and 115 % of control | T/C (dose: 5.0 mg/kg/injection, schedule: Q01DX005 (ip), vehicle: distilled water + Tween-80): 110 % of control and 117 % of control and 119 % of control | T/C (dose: 10.0 mg/kg/injection, schedule: Q01DX005 (ip), vehicle: distilled water + Tween-80): 173 % of control | T/C (dose: 20.0 mg/kg/injection, schedule: Q01DX005 (ip), vehicle: distilled water + Tween-80): 187 % of control [middle of 4 runs] | T/C (dose: 40.0 mg/kg/injection, schedule: Q01DX005 (ip), vehicle: distilled water + Tween-80): 199 % of control

COC(=O)C1(N)CCCC1
T/C (dose: 100.0 mg/kg/injection, schedule: Q04DX003 (ip), vehicle: saline): 90 % of control | T/C (dose: 200.0 mg/kg/injection, schedule: Q04DX003 (ip), vehicle: saline): 113 % of control | T/C (dose: 400.0 mg/kg/injection, schedule: Q04DX003 (ip), vehicle: saline): 109 % of control

O=C(c1ccccc1)C(CC(C(=O)c1ccccc1)c1ccccc1)c1ccccc1 (centres undefined)
T/C [18]: 108 % of control | T/C [19]: 96 % of control | T/C [20]: 99 % of control

CCC1COC(COCc2ccccc2)=N1 (centres undefined)
T/C (dose: 100.0 mg/kg/injection, schedule: Q01DX002 (ip), vehicle: saline): 98 % of control | T/C (dose: 200.0 mg/kg/injection, schedule: Q01DX002 (ip), vehicle: saline): 95 % of control | T/C (dose: 400.0 mg/kg/injection, schedule: Q01DX002 (ip), vehicle: saline): 95 % of control

CCCCN=C(N)N/N=C(\C)c1ccc2c(c1)Cc1ccccc1-2
T/C (dose: 25.0 mg/kg/injection, schedule: Q04DX002 (ip), vehicle: saline with Tween-80): 104 % of control

O=S1(=O)C(c2cccc(F)c2)=C(O)c2cc3ccccc3nc21
T/C [7]: 104 % of control | T/C [8]: 97 % of control | T/C [9]: 104 % of control

C=C(Cl)C(=NC(C)(C)C)Nc1cccc(Cl)c1
T/C (dose: 6.25 mg/kg/injection, schedule: Q01DX005 (ip), vehicle: Klucel (hydroxypropylcellulose) (HPC)): 112 % of control | T/C (dose: 12.5 mg/kg/injection, schedule: Q01DX005 (ip), vehicle: Klucel (hydroxypropylcellulose) (HPC)): 114 % of control | T/C (dose: 25.0 mg/kg/injection, schedule: Q01DX005 (ip), vehicle: Klucel (hydroxypropylcellulose) (HPC)): 112 % of control | T/C [12]: 105 % of control | T/C [13]: 115 % of control | T/C [14]: 118 % of control

CC(=O)[O][Ge]([c]1ccccc1)([c]1ccccc1)[c]1ccccc1
T/C (dose: 50.0 mg/kg/injection, schedule: Q01DX009 (ip), vehicle: Klucel (hydroxypropylcellulose) (HPC)): 107 % of control | T/C (dose: 100.0 mg/kg/injection, schedule: Q01DX009 (ip), vehicle: Klucel (hydroxypropylcellulose) (HPC)): 107 % of control | T/C (dose: 200.0 mg/kg/injection, schedule: Q01DX009 (ip), vehicle: Klucel (hydroxypropylcellulose) (HPC)): 107 % of control | T/C (dose: 400.0 mg/kg/injection, schedule: Q01DX009 (ip), vehicle: Klucel (hydroxypropylcellulose) (HPC)): 96 % of control

CCC1(c2ccccc2)CCC(C#N)C1=N (centres undefined)
T/C (dose: 100.0 mg/kg/injection, schedule: Q01DX001 (ip), vehicle: Klucel (hydroxypropylcellulose) (HPC)): 102 % of control | T/C (dose: 200.0 mg/kg/injection, schedule: Q01DX001 (ip), vehicle: Klucel (hydroxypropylcellulose) (HPC)): 100 % of control | T/C (dose: 400.0 mg/kg/injection, schedule: Q01DX001 (ip), vehicle: Klucel (hydroxypropylcellulose) (HPC)): 98 % of control

COc1cc2c(cc1OC)[C@H](Cc1ccc(Oc3cc4c(cc3O)-c3c(OC)c(OC)cc5c3[C@@H](C4)N(C)CC5)cc1)N(C)CC2
T/C (dose: 11.88 mg/kg/injection, schedule: Q01DX005 (ip), vehicle: Klucel (hydroxypropylcellulose) (HPC)): 98 % of control | T/C (dose: 23.75 mg/kg/injection, schedule: Q01DX005 (ip), vehicle: Klucel (hydroxypropylcellulose) (HPC)): 92 % of control | T/C (dose: 47.5 mg/kg/injection, schedule: Q01DX005 (ip), vehicle: Klucel (hydroxypropylcellulose) (HPC)): 93 % of control | T/C (dose: 95.0 mg/kg/injection, schedule: Q01DX005 (ip), vehicle: Klucel (hydroxypropylcellulose) (HPC)): 105 % of control
